Source: publication PMC2585982 (Toxicology and applied pharmacology, 2008)

Biological target: T1, PXR (Mus musculus, UniProt O54915)
T1 sequence (O54915 1-431): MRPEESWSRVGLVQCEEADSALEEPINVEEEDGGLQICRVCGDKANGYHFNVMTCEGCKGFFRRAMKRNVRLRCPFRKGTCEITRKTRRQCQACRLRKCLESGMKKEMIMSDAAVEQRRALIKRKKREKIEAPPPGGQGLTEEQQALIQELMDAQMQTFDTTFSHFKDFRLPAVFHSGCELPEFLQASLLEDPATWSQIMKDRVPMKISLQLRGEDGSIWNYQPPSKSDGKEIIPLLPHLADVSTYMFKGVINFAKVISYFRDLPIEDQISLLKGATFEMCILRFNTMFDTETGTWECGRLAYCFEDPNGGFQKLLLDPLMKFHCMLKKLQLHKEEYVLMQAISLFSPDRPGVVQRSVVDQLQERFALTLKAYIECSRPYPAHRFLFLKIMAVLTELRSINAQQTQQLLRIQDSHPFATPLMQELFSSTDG
T1 sequence (P19793 1-462 partner): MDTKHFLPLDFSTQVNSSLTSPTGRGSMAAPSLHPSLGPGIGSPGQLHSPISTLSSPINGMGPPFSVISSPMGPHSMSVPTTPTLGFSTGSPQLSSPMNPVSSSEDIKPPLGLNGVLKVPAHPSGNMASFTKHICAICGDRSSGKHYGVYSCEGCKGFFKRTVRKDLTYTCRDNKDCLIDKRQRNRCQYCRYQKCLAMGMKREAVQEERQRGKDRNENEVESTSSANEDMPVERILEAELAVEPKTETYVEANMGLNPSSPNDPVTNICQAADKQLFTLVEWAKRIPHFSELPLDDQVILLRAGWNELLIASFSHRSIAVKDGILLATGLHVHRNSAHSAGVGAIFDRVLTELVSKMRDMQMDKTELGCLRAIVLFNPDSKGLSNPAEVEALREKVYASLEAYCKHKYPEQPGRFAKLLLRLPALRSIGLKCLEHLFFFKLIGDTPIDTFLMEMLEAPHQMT
Experiment: PXR-DR3 reporter assay
Format: cell-based

## COc1c2ccoc2c(OC)c2oc(=O)ccc12 [isopimpinellin, 5,8-dimethoxypsoralen]
  EC50: 15.8 µM
CV-1 cells, full length PXR
  Max (concentration to reach maximal effect), PXR-DR3: 30,000 nM
